Data as given in patent publication US9908899B2 (BIOMARIN PHARMACEUTICAL INC., priority 2011, dated 2018).

Tested on: C57BL/6J male mice
Test: Long term memory for object recognition (ORM)
Assay type: in vivo
Settings: s.c. 3, 10, 30 mg/kg
Method: C57BL/6J male mice were handled 1-2 min for 5 days and were habituated to the experimental apparatus 5 min a day for 4 consecutive days in the absence of objects. […] 24-h later mice were tested for memory retention (5 min) using the object recognition memory task (ORM), in which a familiar object was replaced with a novel one. All training and testing trials were videotaped and analyzed by individuals blind to the treatment condition and the genotype of subjects. A mouse was scored as exploring an object when its head was oriented toward the object within a distance of 1 cm or when the nose was touching the object. The relative exploration time was recorded and expressed by a discrimination index [DI=(tnovel−tfamiliar)/(tnovel+tfamiliar)×100].

SMILES | effect of dose on long-term memory for object recognition
Nc1cc(F)ccc1NC(=O)/C=C/c1cnn(C/C=C/c2ccccc2)c1 [D2, (E)-N-(2-amino-4-fluorophenyl)-3-(1-cinnamyl-1H-pyrazol-4-yl)acrylamide] | no effect of dose
Cc1ccc(C(=O)NCCCCCC(=O)Nc2ccc(F)cc2N)cc1 [RGFP 136, reference compound] | Dose dependent effects
